# Assay results: ChEMBL document CHEMBL3351452, “Chemical synthesis, cytotoxicity, selectivity and bioavailability of 5α-androstane-3α,17β-diol derivatives” (Bioorg Med Chem, 2014)
# Experiments:
# Cytochrome P450 2D6 = Cytochrome P450 2D6 (Homo sapiens, UniProt P10635); experiment: Inhibition of CYP2D6 (unknown origin) using AMMC by fluorescence assay; type: ADME
# [1] = Cytotoxicity against human peripheral blood lymphocytes assessed as assessed as CD19+ B cells population at 0.1 uM after 5 days by flow cytometry analysis (reference value: 2%); type: cell-based; conditions: lymphocyte, 120 h
# [2] = Cytotoxicity against human peripheral blood lymphocytes assessed as assessed as CD19+ B cells population at 1 uM after 5 days by flow cytometry analysis (reference value: 2%); type: cell-based; conditions: lymphocyte, 120 h
# [3] = Cytotoxicity against human peripheral blood lymphocytes assessed as assessed as CD19+ B cells population at 5 uM after 5 days by flow cytometry analysis (reference value: 2%); type: cell-based; conditions: lymphocyte, 120 h
# [4] = Cytotoxicity against human peripheral blood lymphocytes assessed as assessed as CD19+ B cells population at 10 uM after 5 days by flow cytometry analysis (reference value: 2%); type: cell-based; conditions: lymphocyte, 120 h
# [5] = Cytotoxicity against human peripheral blood lymphocytes assessed as assessed as CD19+ B cells population at 30 uM after 5 days by flow cytometry analysis (reference value: 2%); type: cell-based; conditions: lymphocyte, 120 h
# [6] = Cytotoxicity against human peripheral blood lymphocytes assessed as assessed as CD19+ B cells population at 50 uM after 5 days by flow cytometry analysis (reference value: 2%); type: cell-based; conditions: lymphocyte, 120 h
# [7] = Cytotoxicity against human peripheral blood lymphocytes assessed as assessed as CD3+ T cells population at 0.1 uM after 5 days by flow cytometry analysis (reference value: 73.8%); type: cell-based; conditions: lymphocyte, 120 h
# [8] = Cytotoxicity against human peripheral blood lymphocytes assessed as assessed as CD3+ T cells population at 1 uM after 5 days by flow cytometry analysis (reference value: 73.8%); type: cell-based; conditions: lymphocyte, 120 h
# [9] = Cytotoxicity against human peripheral blood lymphocytes assessed as assessed as CD3+ T cells population at 5 uM after 5 days by flow cytometry analysis (reference value: 73.8%); type: cell-based; conditions: lymphocyte, 120 h
# [10] = Cytotoxicity against human peripheral blood lymphocytes assessed as assessed as CD3+ T cells population at 10 uM after 5 days by flow cytometry analysis (reference value: 73.8%); type: cell-based; conditions: lymphocyte, 120 h
# [11] = Cytotoxicity against human peripheral blood lymphocytes assessed as assessed as CD3+ T cells population at 30 uM after 5 days by flow cytometry analysis (reference value: 73.8%); type: cell-based; conditions: lymphocyte, 120 h
# [12] = Cytotoxicity against human peripheral blood lymphocytes assessed as assessed as CD3+ T cells population at 50 uM after 5 days by flow cytometry analysis (reference value: 73.8%); type: cell-based; conditions: lymphocyte, 120 h
# [13] = Cytotoxicity against human peripheral blood lymphocytes assessed as assessed as CD3+/CD4+ T cells population at 0.1 uM after 5 days by flow cytometry analysis (reference value: 41.4%); type: cell-based; conditions: lymphocyte, 120 h
# [14] = Cytotoxicity against human peripheral blood lymphocytes assessed as assessed as CD3+/CD4+ T cells population at 1 uM after 5 days by flow cytometry analysis (reference value: 41.4%); type: cell-based; conditions: lymphocyte, 120 h
# [15] = Cytotoxicity against human peripheral blood lymphocytes assessed as assessed as CD3+/CD4+ T cells population at 5 uM after 5 days by flow cytometry analysis (reference value: 41.4%); type: cell-based; conditions: lymphocyte, 120 h
# [16] = Cytotoxicity against human peripheral blood lymphocytes assessed as assessed as CD3+/CD4+ T cells population at 10 uM after 5 days by flow cytometry analysis (reference value: 41.4 %); type: cell-based; conditions: lymphocyte, 120 h
# [17] = Cytotoxicity against human peripheral blood lymphocytes assessed as assessed as CD3+/CD4+ T cells population at 30 uM after 5 days by flow cytometry analysis (reference value: 41.4%); type: cell-based; conditions: lymphocyte, 120 h
# [18] = Cytotoxicity against human peripheral blood lymphocytes assessed as assessed as CD3+/CD4+ T cells population at 50 uM after 5 days by flow cytometry analysis (reference value: 41.4%); type: cell-based; conditions: lymphocyte, 120 h
# [19] = Cytotoxicity against human peripheral blood lymphocytes assessed as assessed as CD3+/CD8 T cells population at 0.1 uM after 5 days by flow cytometry analysis (reference value: 15.2 %); type: cell-based; conditions: lymphocyte, 120 h
# [20] = Cytotoxicity against human peripheral blood lymphocytes assessed as assessed as CD3+/CD8 T cells population at 1 uM after 5 days by flow cytometry analysis (reference value: 15.2%); type: cell-based; conditions: lymphocyte, 120 h
# [21] = Cytotoxicity against human peripheral blood lymphocytes assessed as assessed as CD3+/CD8 T cells population at 5 uM after 5 days by flow cytometry analysis (reference value: 15.2 %); type: cell-based; conditions: lymphocyte, 120 h
# [22] = Cytotoxicity against human peripheral blood lymphocytes assessed as assessed as CD3+/CD8 T cells population at 10 uM after 5 days by flow cytometry analysis (reference value: 15.2 %); type: cell-based; conditions: lymphocyte, 120 h
# [23] = Cytotoxicity against human peripheral blood lymphocytes assessed as assessed as CD3+/CD8 T cells population at 30 uM after 5 days by flow cytometry analysis (reference value: 15.2 %); type: cell-based; conditions: lymphocyte, 120 h
# [24] = Cytotoxicity against human peripheral blood lymphocytes assessed as assessed as CD3+/CD8 T cells population at 50 uM after 5 days by flow cytometry analysis (reference value: 15.2 %); type: cell-based; conditions: lymphocyte, 120 h
# [25] = Cytotoxicity against human peripheral blood lymphocytes assessed as assessed as CD4+/CD8+ […] ratio at 0.1 uM after 5 days by flow cytometry analysis (reference value: 2.7%); type: cell-based; conditions: lymphocyte, 120 h
# [26] = Cytotoxicity against human peripheral blood lymphocytes assessed as assessed as CD4+/CD8+ […] ratio at 1 uM after 5 days by flow cytometry analysis (reference value: 2.7%); type: cell-based; conditions: lymphocyte, 120 h
# [27] = Cytotoxicity against human peripheral blood lymphocytes assessed as assessed as CD4+/CD8+ […] ratio at 5 uM after 5 days by flow cytometry analysis (reference value: 2.7%); type: cell-based; conditions: lymphocyte, 120 h
# [28] = Cytotoxicity against human peripheral blood lymphocytes assessed as assessed as CD4+/CD8+ […] ratio at 10 uM after 5 days by flow cytometry analysis (reference value: 2.7 %); type: cell-based; conditions: lymphocyte, 120 h
# [29] = Cytotoxicity against human peripheral blood lymphocytes assessed as assessed as CD4+/CD8+ […] ratio at 30 uM after 5 days by flow cytometry analysis (reference value: 2.7%); type: cell-based; conditions: lymphocyte, 120 h
# [30] = Cytotoxicity against human peripheral blood lymphocytes assessed as assessed as CD4+/CD8+ […] ratio at 50 uM after 5 days by flow cytometry analysis (reference value: 2.7%); type: cell-based; conditions: lymphocyte, 120 h
# HL-60 = experiment: Antiproliferative activity against human HL-60 cells assessed as reduction in cell growth after 24 hrs by MTS assay; type: functional, cell-based; conditions: HL-60, 24 h
# MCF7 = experiment: Antiproliferative activity against human MCF7 cells assessed as reduction in cell growth after 24 hrs by MTS assay; type: functional, cell-based; conditions: MCF7, 24 h
# T47D = experiment: Antiproliferative activity against human T47D cells assessed as reduction in cell growth after 24 hrs by MTS assay; type: functional, cell-based
# LNCaP = experiment: Antiproliferative activity against human LNCAP cells assessed as reduction in cell growth after 24 hrs by MTS assay; type: functional, cell-based
# [31] = Plasma concentration in Sprague-Dawley rat at 2.3 mg/kg, sc measured at 3 hrs by LC/MS/MS analysis; type: ADME, organism-based; design: dose 2.3 mg/kg, route subcutaneous
# [32] = Plasma concentration in Sprague-Dawley rat at 2.3 mg/kg, sc measured at 12 hrs by LC/MS/MS analysis; type: ADME, organism-based; design: dose 2.3 mg/kg, route subcutaneous
# [33] = Cytotoxicity against mouse WEHI13 cells assessed as cell proliferation after 48 hrs by MTT assay; type: cell-based; conditions: WEHI13, 48 h
# Cytochrome P450 3A4 = Cytochrome P450 3A4 (Homo sapiens, UniProt P08684); experiment: Inhibition of CYP3A4 (unknown origin) using AMMC by fluorescence assay; type: ADME
# Chain of Cytochrome P450 3A4 (P08684 whole entry): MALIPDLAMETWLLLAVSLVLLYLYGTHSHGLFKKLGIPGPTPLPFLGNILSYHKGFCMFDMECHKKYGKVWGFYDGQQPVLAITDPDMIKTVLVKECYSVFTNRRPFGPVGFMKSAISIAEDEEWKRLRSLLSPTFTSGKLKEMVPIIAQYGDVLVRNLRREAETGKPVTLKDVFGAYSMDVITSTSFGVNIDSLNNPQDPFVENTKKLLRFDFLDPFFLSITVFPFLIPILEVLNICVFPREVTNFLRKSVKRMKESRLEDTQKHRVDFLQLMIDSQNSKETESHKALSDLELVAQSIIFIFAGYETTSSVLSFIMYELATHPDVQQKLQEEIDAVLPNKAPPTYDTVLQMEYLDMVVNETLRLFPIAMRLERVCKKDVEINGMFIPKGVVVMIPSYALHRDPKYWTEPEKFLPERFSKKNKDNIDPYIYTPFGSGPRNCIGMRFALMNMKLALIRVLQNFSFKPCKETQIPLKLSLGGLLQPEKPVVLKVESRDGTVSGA
# Chain of Cytochrome P450 2D6 (P10635 whole entry): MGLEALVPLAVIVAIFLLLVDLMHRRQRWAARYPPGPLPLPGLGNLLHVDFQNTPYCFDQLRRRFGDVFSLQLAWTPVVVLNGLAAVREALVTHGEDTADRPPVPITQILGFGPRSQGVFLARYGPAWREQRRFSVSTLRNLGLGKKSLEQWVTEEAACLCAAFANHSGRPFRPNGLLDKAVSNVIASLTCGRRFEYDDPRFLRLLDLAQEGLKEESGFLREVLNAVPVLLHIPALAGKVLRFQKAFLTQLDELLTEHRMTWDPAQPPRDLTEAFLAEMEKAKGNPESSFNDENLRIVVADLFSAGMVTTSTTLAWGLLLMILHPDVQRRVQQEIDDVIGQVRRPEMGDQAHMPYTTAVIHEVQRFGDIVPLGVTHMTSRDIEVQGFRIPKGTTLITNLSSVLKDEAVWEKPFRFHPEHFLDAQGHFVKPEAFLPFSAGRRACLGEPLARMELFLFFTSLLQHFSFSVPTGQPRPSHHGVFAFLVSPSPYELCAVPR
compound,measurement,setting,value
C#C[C@]1(O)CC[C@H]2[C@@H]3CC[C@H]4C[C@H](O)[C@@H](N5CCN(C(=O)[C@@H]6CCCN6C(=O)c6ccc7ccccc7n6)CC5)C[C@]4(C)[C@H]3CC[C@@]21C,IC50,Cytochrome P450 2D6,25000 nM
same,Activity,[1],1.1%
same,Activity,[2],2.2%
same,Activity,[3],1.7%
same,Activity,[4],1.4%
same,Activity,[5],1.9%
same,Activity,[6],1.8%
same,Activity,[7],57.5%
same,Activity,[8],53.7%
same,Activity,[9],59.1%
same,Activity,[10],55.1%
same,Activity,[11],58.5%
same,Activity,[12],62.1%
same,Activity,[13],16.9%
same,Activity,[14],16.6%
same,Activity,[15],19.5%
same,Activity,[16],18.4%
same,Activity,[17],21%
same,Activity,[18],23.1%
same,Activity,[19],12.1%
same,Activity,[20],3.3%
same,Activity,[21],3.3%
same,Activity,[22],1.6%
same,Activity,[23],0.1%
same,Activity,[24],0.1%
same,Activity,[25],1.4%
same,Activity,[26],5%
same,Activity,[27],6%
same,Activity,[28],11.3%
same,Activity,[29],216%
same,Activity,[30],231%
same,IC50,HL-60,100 nM
same,IC50,MCF7,100 nM
same,IC50,T47D,100 nM
same,IC50,LNCaP,2000 nM
same,concentration at 3 h,[31],151 ng/mL
same,concentration at 12 h,[32],15.7 ng/mL
same,IC50,[33],1100 nM
same,IC50,Cytochrome P450 3A4,3800 nM
